From patent publication US7176228B2, “Pyrazole biphenylcarboxamides” (Bayer Cropscience AG, priority 2000, dated 2007) come the findings set out here.

This data set is described as follows: logP determination by HPLC on a reversed-phase column (EEC Directive 79/831 Annex V.A8). The format is physicochemical. The conditions noted are these: reversed-phase C18 HPLC column, reversed-phase column (C 18), 43° C., acidic range (a): 0.1% aqueous phosphoric acid, acetonitrile gradient 10% to 90%. The protocol:
[table] Calibration was carried out using unbranched alkan-2-ones (having 3 to 16 carbon atoms) with known logP values (determination of the logP values by the retention times using linear interpolation between two successive alkanones).

Broadly, the chromatographic logP is a lipophilicity value derived from retention on a column.

Take `CO/N=C/c1cccc(-c2ccccc2NC(=O)c2sc(C)nc2C(F)(F)F)c1` [Example 2]: the chromatographic logP worked out at 3.42.

On to `CCCCO/N=C\c1ccc(-c2ccccc2NC(=O)c2sc(C)nc2C(F)(F)F)cc1` [Example 3], for which the chromatographic logP is 4.65.

In turn, `Cc1nc(C(F)(F)F)c(C(=O)Nc2ccccc2-c2ccc(/C=N\OC(C)C)cc2)s1` [Example 5] had a chromatographic logP of 4.23.

`CO/N=C\c1ccc(-c2ccccc2NC(=O)c2c(C)nn(C)c2Cl)cc1` [Example 17]: the chromatographic logP turned out to be 3.24.

For `CO/N=C\c1ccc(-c2ccccc2NC(=O)c2cn(C)cc2C)cc1` [Example 19], the chromatographic logP came to 5.1.

For `CCCCO/N=C/c1ccc(-c2ccccc2NC(=O)c2cn(C)nc2C(F)(F)F)cc1` [Example 22], the chromatographic logP stood at 4.26.

`CCCO/N=C/c1ccc(-c2ccccc2NC(=O)c2sc(C)nc2C(F)(F)F)cc1` [Example 23] had a chromatographic logP of 4.26.

In turn, `CCCO/N=C/c1ccc(-c2ccccc2NC(=O)c2cn(C)nc2C(F)(F)F)cc1` [Example 28] yielded a chromatographic logP of 3.86.

`Cc1nc(C(F)(F)F)c(C(=O)Nc2ccccc2-c2ccc(/C=N\O)cc2)s1` [Example 30]: the chromatographic logP worked out at 2.78.

Consider `CO/N=C/c1ccc(-c2ccccc2NC(=O)c2sc(N(C)C)nc2C(F)(F)F)cc1` [Example 32], for which the chromatographic logP is 3.84.

As to `CO/N=C/c1ccc(-c2ccccc2NC(=O)c2cccnc2OC)cc1` [Example 33], the chromatographic logP turned out to be 4.12.

`CO/N=C/c1ccc(-c2ccccc2NC(=O)c2ccc(OC)nc2OC)cc1` [Example 34]: the chromatographic logP came out at 4.73.

`CO/N=C/c1ccc(-c2ccccc2NC(=O)c2cccnc2C)cc1` [Example 35] yielded a chromatographic logP of 2.04.

In the case of `CO/N=C/c1ccc(-c2ccccc2NC(=O)c2ccccc2C(F)(F)F)cc1` [Example 36], the chromatographic logP was 3.75.

In turn, `CO/N=C/c1ccc(-c2ccccc2NC(=O)c2sc(Cl)nc2C(F)(F)F)cc1` [Example 37] came in with a chromatographic logP of 4.08.

`CO/N=C/c1ccc(-c2ccccc2NC(=O)c2ccccc2Cl)cc1` [Example 38] had a chromatographic logP of 3.59.

`CO/N=C/c1ccc(-c2ccccc2NC(=O)c2ccccc2Br)cc1` [Example 39] came in with a chromatographic logP of 3.61.

With `CO/N=C/c1ccc(-c2ccccc2NC(=O)c2ccccc2C)cc1` [Example 40], the chromatographic logP amounted to 3.56.

Take `Cn1cc(C(=O)Nc2ccccc2-c2ccc(/C=N\O)cc2)c(C(F)(F)F)n1` [Example 41]: the chromatographic logP worked out at 3.19.

Regarding `CO/N=C/c1ccc(-c2ccccc2NC(=O)c2ccoc2C)cc1` [Example 42], the chromatographic logP was determined as 3.47.

Regarding `CO/N=C/c1cccc(-c2ccccc2NC(=O)c2ccoc2C)c1` [Example 43], the chromatographic logP was determined as 3.47.

Regarding `CO/N=C/c1cccc(-c2ccccc2NC(=O)c2ccccc2C(F)(F)F)c1` [Example 44], the chromatographic logP was determined as 3.76.

Compound `CO/N=C/c1ccc(-c2ccccc2NC(=O)c2ccccc2I)cc1` [Example 45] came in with a chromatographic logP of 3.73.

Take `CO/N=C/c1cccc(-c2ccccc2NC(=O)c2ccccc2I)c1` [Example 46]: the chromatographic logP is 3.73.

Take `CO/N=C/c1ccc(-c2ccccc2NC(=O)c2sccc2C)cc1` [Example 47]: the chromatographic logP worked out at 3.86.

Consider `CO/N=C/c1cccc(-c2ccccc2NC(=O)c2sccc2C)c1` [Example 48], for which the chromatographic logP was 3.84.

For `CO/N=C/c1ccc(-c2ccccc2NC(=O)c2cn(C)nc2C(F)(F)F)cc1Cl` [Example 49], the chromatographic logP came out at 3.54.

In turn, `CO/N=C\c1cc(-c2ccccc2NC(=O)c2cn(C)nc2C(F)(F)F)ccc1/C=N/OC` [Example 50] gave a chromatographic logP of 3.36.

For the compound `CO/N=C/c1ccc(-c2c(C)cccc2NC(=O)c2sc(C)nc2C(F)(F)F)cc1` [Example 51], the chromatographic logP amounted to 3.78.

As to `CO/N=C/c1cccc(-c2ccccc2NC(=O)c2cn(C)nc2C(F)(F)F)c1` [Example 52], the chromatographic logP stood at 3.25.

As for `CO/N=C/c1ccc(-c2ccccc2NC(=O)C2=C(C)OCCS2)cc1` [Example 53], the chromatographic logP is 3.75.

On to `CO/N=C/c1ccc(-c2ccccc2NC(=O)c2ccco2)cc1` [Example 54], for which the chromatographic logP amounted to 3.2.

`CO/N=C/c1cccc(-c2ccccc2NC(=O)c2ccco2)c1` [Example 55] gave a chromatographic logP of 3.2.

On to `CO/N=C/c1ccc(-c2ccccc2NC(=O)c2sccc2Br)cc1` [Example 56], for which the chromatographic logP worked out at 4.39.

In the case of `CO/N=C/c1cccc(-c2ccccc2NC(=O)c2sccc2Br)c1` [Example 57], the chromatographic logP came to 4.39.

Turning to `CO/N=C/c1cccc(-c2ccccc2NC(=O)c2c(C)nn(C)c2Cl)c1` [Example 58], the chromatographic logP was determined as 3.37.

`CO/N=C/c1cccc(-c2ccccc2NC(=O)C2=C(C)OCCS2)c1` [Example 59] registered a chromatographic logP of 3.64.

On to `CO/N=C/c1ccc(-c2ccccc2NC(=O)c2sc(C)nc2C(F)F)cc1` [Example 60], for which the chromatographic logP is 3.26.

In turn, `CO/N=C/c1cccc(-c2ccccc2NC(=O)c2sc(C)nc2C(F)F)c1` [Example 61] showed a chromatographic logP of 3.26.

In turn, `CO/N=C/c1ccc(-c2ccccc2NC(=O)c2ccc(C(F)(F)F)o2)cc1` [Example 62] registered a chromatographic logP of 3.99.

For the compound `CO/N=C/c1cccc(-c2ccccc2NC(=O)c2ccc(C(F)(F)F)o2)c1` [Example 63], the chromatographic logP came out at 4.02.

Turning to `CO/N=C/c1ccc(-c2ccccc2NC(=O)c2cc(C)oc2C(F)(F)F)cc1` [Example 64], the chromatographic logP was determined as 3.94.

For `CO/N=C/c1cccc(-c2ccccc2NC(=O)c2cc(C)oc2C(F)(F)F)c1` [Example 65], the chromatographic logP is 3.97.

In turn, `CO/N=C/c1ccc(-c2ccccc2NC(=O)c2cn(C)cc2C(C)C)cc1` [Example 66] displayed a chromatographic logP of 3.82.

In turn, `CO/N=C/c1ccc(-c2ccccc2NC(=O)c2sc(Cl)nc2C)cc1` [Example 67] had a chromatographic logP of 3.75.

In turn, `CO/N=C/c1cccc(-c2ccccc2NC(=O)c2sc(Cl)nc2C)c1` [Example 68] gave a chromatographic logP of 3.75.

With `CO/N=C/c1cccc(-c2ccccc2NC(=O)c2nc(C)oc2C(F)(F)F)c1` [Example 70], the chromatographic logP is 4.45.

Consider `CO/N=C/c1ccc(-c2ccccc2NC(=O)c2ccc(Br)o2)cc1` [Example 71], for which the chromatographic logP was found to be 3.78.

`CO/N=C/c1cccc(-c2ccccc2NC(=O)c2ccc(Br)o2)c1` [Example 72] gave a chromatographic logP of 3.8.

`CO/N=C/c1cccc(-c2ccccc2NC(=O)c2sc(N(C)C)nc2C(F)(F)F)c1` [Example 73]: the chromatographic logP was found to be 4.

The compound `CO/N=C/c1ccc(-c2ccccc2NC(=O)c2sc(C)nc2C(F)(F)F)cc1Cl` [Example 74] had a chromatographic logP of 3.95.

Regarding `CCCCO/N=C(/C)c1ccc(-c2ccccc2NC(=O)c2sc(C)nc2C(F)(F)F)cc1` [Example 77], the chromatographic logP came out at 4.77.

On to `CCc1nn(C)c(Cl)c1C(=O)Nc1ccccc1-c1ccc(/C=N/OC)cc1` [Example 95], for which the chromatographic logP amounted to 3.68.

On to `CCc1nn(C)c(Cl)c1C(=O)Nc1ccccc1-c1cccc(/C=N/OC)c1` [Example 96], for which the chromatographic logP came to 3.72.

For the compound `CO/N=C/c1ccc(-c2ccccc2NC(=O)c2c(C3CC3)nn(C)c2Cl)cc1` [Example 97], the chromatographic logP was 3.76.

`CO/N=C/c1cccc(-c2ccccc2NC(=O)c2c(C3CC3)nn(C)c2Cl)c1` [Example 98] gave a chromatographic logP of 3.81.

In the case of `CO/N=C/c1ccc(-c2ccccc2NC(=O)c2cc(Cl)sc2Cl)cc1` [Example 99], the chromatographic logP worked out at 4.67.

`CO/N=C/c1cccc(-c2ccccc2NC(=O)c2cc(Cl)sc2Cl)c1` [Example 100] came in with a chromatographic logP of 4.72.

`CO/N=C/c1ccc(-c2ccccc2NC(=O)c2ccc([N+](=O)[O-])o2)cc1` [Example 101] had a chromatographic logP of 3.26.

Compound `CO/N=C/c1cccc(-c2ccccc2NC(=O)c2ccc([N+](=O)[O-])o2)c1` [Example 102] registered a chromatographic logP of 3.26.

Regarding `CCn1nc(C)c(C(=O)Nc2ccccc2-c2ccc(/C=N/OC)cc2)c1Cl` [Example 103], the chromatographic logP was 3.87.

In the case of `CO/N=C/c1ccc(-c2ccccc2NC(=O)c2ccsc2)cc1` [Example 108], the chromatographic logP was found to be 3.1.

In turn, `CO/N=C/c1ccc(-c2ccccc2NC(=O)c2ccsc2C)cc1` [Example 110] gave a chromatographic logP of 3.58.

In the case of `CO/N=C/c1cccc(-c2ccccc2NC(=O)c2ccsc2C)c1` [Example 111], the chromatographic logP came out at 3.59.

Take `CO/N=C/c1ccc(-c2ccccc2NC(=O)c2cn(C)nc2C(F)(F)F)cc1F` [Example 112]: the chromatographic logP stood at 3.21.

As to `CO/N=C/c1ccc(-c2ccccc2NC(=O)c2cccnc2O)cc1` [Example 113], the chromatographic logP is 2.43.

Consider `CO/N=C/c1ccc(-c2ccccc2NC(=O)c2cn(C)nc2C(F)F)cc1F` [Example 114], for which the chromatographic logP amounted to 3.

In turn, `CCCO/N=C/c1ccc(-c2ccccc2NC(=O)c2c(C)nn(C)c2Cl)cc1` [Example 118] displayed a chromatographic logP of 4.22.
